Data on two molecules can be found in US20100003217A1, “Compounds and Pharmaceutical Compositions for the Treatment of Viral Infections” (priority 2008, published 2010).

Data set [1] relates to HCV genotype 1b replicon (GS4.1 cells). In words: HCV replicon assay (NS4A ELISA). The data set is classed as cell-based, hepatitis C virus. As to conditions: 3 days. The procedure:
The biological activity of Compound 1, diastereomer 1 and diastereomer 2 was measured by monitoring expression of the NS4A protein by enzyme-linked immunosorbent assay (ELISA) and by luciferase assay as described below:
The HCV replicon assay measures the ability of a test compound to inhibit HCV replication in cell culture after 3 days of treatment in a human hepatoma cell line (Huh-7) bearing the HCV genotype 1b replicon (GS4.1 cells). The inhibition of HCV replication was measured by quantification of viral NS4A protein using an enzyme-linked immunosorbent assay (ELISA). […] Additionally, the replicon contains the neomycin phosphotransferase gene under the control of the HCV promoter (Source: Dr. Christoph Seeger, Fox Chase Cancer Center, Philadelphia, Pa.).
The NS4A ELISA assay is summarized as follows. Ninety-six-well tissue culture plates were seeded with GS4.1 cells. Antiviral compound solutions were made up freshly in medium as 2×-concentrated stocks. Eight additional 3-fold drug dilutions were prepared from these stocks in medium for a total of 9 dilutions. At least four hours after GS4.1 cells were seeded, drug treatment was initiated by adding one volume of each 2× concentrated drug dilution to one volume of cells/medium in the tissue culture plates. Cells were then incubated for 3 days at 37° C./5% CO2.
The media/compound was then removed from the plates and cells were fixed with acetone:methanol, washed three times with a wash solution, and then blocked for 1 hour with 10% fetal bovine serum in a balanced salt solution. Cells were washed three times and incubated with an anti-hepatitis C NS4A monoclonal antibody (Virogen Corp.) for 2 hours at 37° C. […] The reaction was stopped with diluted sulfuric acid (Mallinckrodt Chemicals) and absorbance measured on a Victor^3V 1420 multilabel counter (Perkin Elmer). EC50 values were calculated from dose response curves from the resulting best-fit equations determined by Microsoft Excel and XLfit 4.1 software.
A general note: Replicon systems follow genome replication, usually without infectious particles.

The subject of data set [2] is HCV genotype 1b replicon (Zluc cells). Description: HCV luciferase replicon assay. As to conditions: 3 days. In kind it is cell-based, hepatitis C virus. How it is done:
The HCV luciferase replicon assay measures the ability of a test compound to inhibit HCV replication in cell culture after 3 days of treatment in a human hepatoma cell line (Huh-7) bearing the HCV genotype 1b replicon and a luciferase-neomycin phosphotransferase fusion gene. The inhibition of HCV replication was measured by quantification of luciferase protein expression. The HCV luciferase replicon was constructed by fusing a luciferase gene to the amino terminus of the neomycin phosphotransferase gene of the ZS11 HCV replicon. The ZS11 HCV replicon (Zhu Q, Guo J-T, and Seeger C, 2003) is derived from the SP1 replicon, but contains three cell culture-adapted mutations: E1202G (NS3), S22041 (NS5A), and D2254E (NS5A). These mutations allow for efficient in vitro replication. The luciferase reporter gene was amplified from the pGL4.13[luc2/SV40] vector (Promega Corp.). The replicon resulting from the luciferase-neomycin fusion (ZS11-luc) was stably-transfected into Huh-7 cells, yielding the Zluc cell line.
The luciferase replicon assay is summarized as follows: Solid white 96-well tissue culture plates (BD Falcon) were seeded with Zluc cells. Antiviral compound solutions were made up freshly in medium as 2×-concentrated stocks. Eight additional 3-fold drug dilutions were prepared from these stocks in medium for a total of 9 dilutions. At least four hours after Zluc cells were seeded, drug treatment was initiated by adding one volume of each 2×-concentrated drug dilution to one volume of cells/medium in the tissue culture plates. Cells were then incubated for 3 days at 37° C./5% CO2.
The media/compound was then removed from the plates and the ONE-glo Luciferase assay reagent (Promega) was added to each well. The assay plates were shaken for 3 minutes at room temperature and luciferase activity for each well was measured with a 1 sec read time on the Victor^3V multilabel counter using a 700 nm cut-off filter (Perkin Elmer). EC50 values were calculated from dose response curves from the resulting best-fit equations determined by Microsoft Excel and XLfit 4.1 software.

Data set [3] relates to GS4.1 cells. Description: Cytotoxicity assay (MTS), GS4.1 cells. The data set is classed as cell-based, human. As to conditions: 3 days (NS4A-ELISA Assay). The procedure: (§1) The cytotoxicity assay measures the viability of cells after treatment with a test compound for 3 days in either GS4.1 cells or Zluc cells. […] The cytotoxicity assay is summarized as follows. Ninety-six-well tissue culture plates were seeded with GS4.1 or Zluc cells. Antiviral compound solutions were made up freshly in medium as 2×-concentrated stocks. Eight additional 3-fold drug dilutions were prepared from these stocks in medium for a total of 9 dilutions. At least four hours after the cells were seeded, drug treatment was initiated by adding one volume of each 2×-concentrated drug dilution to one volume of cells/medium in the tissue culture plates. Cells were then incubated for 3 days at 37° C./5% CO2. After 3 days of treatment, the CellTiter 96® Aqueous One Solution cell proliferation assay (Promega) was performed by adding the MTS solution to each well. The plates were then incubated at 37° C./5% CO2 for 3.5 hours. Plates were then read in a Victor^3V 1420 multilabel counter (Perkin Elmer) and CC50 concentrations were determined using Microsoft Excel and XLfit 4.1 software.
Background: ELISA stands for enzyme-linked immunosorbent assay.

The subject of another data set is Zluc cells. In words: Cytotoxicity assay (MTS), Zluc cells. The data set is classed as cell-based, human. The procedure: as §1
In data set [4] the test system is HCV genotype 1b replicon (GS4.1 cells). Description: In vitro combination of Compound 1 and ribavirin on HCV replicon (NS4A ELISA; MacSynergy II, CombiTool, CalcuSyn). In kind it is cell-based. As to conditions: Hepatitis C virus, 72 h, single-drug titration experiments, three days. How it is done: This setup was run in duplicate in each 96-well plate.
Cells were incubated with inhibitors for three days at 37° C./5% CO2.
After three days of drug treatment, media was removed from the plates via gentle tapping and the cells were fixed to the plates with 100 μL/well of 1:1 acetone:methanol.
After one minute of incubation at room temperature, plates were washed three times with 100 μL/well of ELISA wash solution and then blocked with 150 μL/well of 10% FBS-TNE.
After a one hour incubation period at 37° C., each plate was washed three times with 100 μL/well of ELISA wash solution. Color development was then initiated with 100 μL/well of OPD solution.
After a 30 minute incubation period in the dark at room temperature, reactions were stopped by adding 100 μL of 2NH2SO4 to each well.
The absorbance was measured at 490 nm on a Victor^3 V 1420 multilabel counter (Perkin Elmer).

Data set [5] has as its system GS4.1 cells. Description: Cytotoxicity of Compound 1 and RBV on GS4.1 cells using MTS assay (combination study). To be noted: three days, 0.6× to 1.5× EC50, alone or in combination. How it is done: The readout of the assay was measured by the bioreduction of the yellow MTS tetrazolium compound to a purple formazan product. This conversion is mediated by NADPH or NADH in metabolically active cells and is therefore directly proportional to the number of live cells in a culture. Plates were setup as described above.
Cells were plated and treated with inhibitors using the drug matrix described above.
After three days of drug treatment, 20 μL of MTS was added to each well, and then plates were incubated at 37° C./5% CO2.
A general note: Tetrazolium dyes change colour on reduction, which living cells bring about.

In data set [6] the test system is S282T HCV replicon (184R-D2 cells). In words: microbe, parasite or virus in culture. As to conditions: Hepatitis C virus. How it is done: (§2) 1. […] Huh-7 cells were seeded into column 1 of each plate at a similar density.
(§3) 2. […] Eight additional 3-fold serial dilutions of each compound were prepared from the 2× stock in assay medium. Final drug concentrations ranged from 100 to 0.015 μM.
(§4) 3. […] This setup was run in duplicate in each 96-well plate.
(§5) 4. Cells were incubated with inhibitors for three days at 37° C./5% CO2.
(§6) 1. After three days of drug treatment, media was removed from the plates via gentle tapping and the cells were fixed to the plates with 100 μL/well of 1:1 acetone:methanol.
(§7) 2. After one minute of incubation at room temperature, plates were washed three times with 100 μL/well of ELISA wash solution and then blocked with 150 μL/well of 10% FBS-TNE.
(§8) 3. After a one hour incubation at room temperature, plates were washed three times with 100 μL/well of ELISA wash solution, and then 100 μL/well of mouse anti-hepatitis C […] mAb (1 mg/mL stock diluted 1:1,500 in 10% FBS-TNE) was added.
(§9) 4. Following 2 hours of incubation at 37° C., plates were washed three times with 100 μL/well of ELISA wash solution, and then 100 μL/well of HRP-goat anti-mouse antibody (diluted 1:4,000 in 10% FBS-TNE) was added.
(§10) 4. After a one hour incubation period at 37° C., each plate was washed three times with 100 μL/well of ELISA wash solution. Color development was then initiated with 100 μL/well of OPD solution.
(§11) 5. After a 30 minute incubation period in the dark at room temperature, reactions were stopped by adding 100 μL of 2NH2SO4 to each well.
(§12) 6. The absorbance was measured at 490 nm on a Victor^3 V 1420 multilabel counter (Perkin Elmer). The percent inhibition of HCV replicon replication was calculated for each drug using an average of the duplicate wells.

Data set [7] deals with wild-type HCV replicon (GS4.1 cells). In words: microbe, parasite or virus in culture. To be noted: Hepatitis C virus. The procedure:
as §2, §3, §4, §5, §6, §7, §8, §9, §10, §11, §12

The subject of data set [8] is S282T HCV replicon (184R-A cells). In words: microbe, parasite or virus in culture. As to conditions: Hepatitis C virus. The procedure:
3. The 184R-A cell line was derived by culturing wild-type replicon cells in the presence of 1 to 5 μM of Compound 1 for >100 days.
as §2, §3, §4, §5, §6, §7, §8, §9, §10, §11, §12

Data set [9] in a line: Cytotoxicity (MTS assay), GS4.1 cells, Example 18. In kind it is cell-based, human. To be noted: human, GS4.1 cells (wild-type); GS4.1 (wild-type), MTS assay, N = 3. The procedure:
(§13) Cells were plated and treated with inhibitors as described above.

In data set [10] the test system is GS4.1 cells. In words: Cytotoxicity (MTS assay), GS4.1 cells, Example 18. The data set is classed as cell-based, human. To be noted: wild-type or S282T replicon cells treated with up to 100 μM. How it is done: as §13
A short description of data set [11]: Cytotoxicity (MTS assay), 184R-A cells. In kind it is cell-based. As to conditions: human, 184R-A cells (S282T), 184R-A (S282T), N = 3. The procedure: as §13
Data set [12] is described as follows: Cytotoxicity (MTS assay), 184R-D2 cells. To be noted: human, 184R-D2 cells (S282T), 184R-D2 (S282T), N = 3. In kind it is cell-based. How it is done:
as §13

Take `CC(C)(CO)C(=O)SCCOP(=O)(NCc1ccccc1)OC[C@H]1O[C@@H](n2cnc3c(=O)[nH]c(N)nc32)[C@](C)(O)[C@@H]1O` (single isomer, unassigned; diastereomer 2) [Diastereomer 2]: the EC50 (in general, the concentration giving half of the maximal effect) worked out at 0.244 ± 0.098 µM in [1] and 0.0568 ± 0.0006 µM in data set [2]. In addition, the CC50 in the data set on GS4.1 cells [3] and with Zluc cells was > 100 µM each time.

As to `NC(=O)c1ncn([C@@H]2O[C@H](CO)[C@@H](O)[C@H]2O)n1` [RBV, ribavirin, reference compound], the EC50 in data set [4] is 21.8 ± 3.6 µM; in data set [6], 17 ± 3.5 µM; in data set [7], 38 ± 2.8 µM; in data set [8] it was 12.3 ± 1.9 µM. Also, the “in vitro cytotoxicity (MTS)” value with GS4.1 cells [5] and in the data set with GS4.1 cells [10] was “no evidence of in vitro cytotoxicity” throughout. The CC50 at 3 days in data set [9], in data set [11] and in [12] was > 100 µM throughout.
